From ChEMBL document CHEMBL4715697, “Synthesis and biological activity of benzamide DNA minor groove binders” (2016)

Assays:
NCI-H322M = test: Growth inhibition of human NCI-H322M cells assessed as cell growth at 10 uM incubated for 48 hrs by sulforhodamine B assay relative to control; type: functional; conditions: read-out: Activity
RXF 393 = test: Growth inhibition of human RXF 393 cells assessed as cell growth at 0.01 uM incubated for 48 hrs by sulforhodamine B assay relative to control; type: functional; conditions: read-out: Activity
MCF7 = test: Growth inhibition of human MCF7 cells assessed as cell growth at 100 uM incubated for 48 hrs by sulforhodamine B assay relative to control; type: functional; conditions: read-out: Activity
K562 [1] = test: Growth inhibition of human K562 cells assessed as cell growth at 0.1 uM incubated for 48 hrs by sulforhodamine B assay relative to control; type: functional; conditions: read-out: Activity
HT-29 [2] = test: Growth inhibition of human HT-29 cells assessed as cell growth at 0.1 uM incubated for 48 hrs by sulforhodamine B assay relative to control; type: functional; conditions: read-out: Activity
Hs-578T = test: Growth inhibition of human Hs-578T cells assessed as cell growth at 10 uM incubated for 48 hrs by sulforhodamine B assay relative to control; type: functional; conditions: read-out: Activity
K562 [3] = test: Growth inhibition of human K562 cells assessed as cell growth at 10 uM incubated for 48 hrs by sulforhodamine B assay relative to control; type: functional; conditions: read-out: Activity
[4] = tested on: Poly(dA-dT)oligonucleotide; test: Binding affinity to minor groove of poly(dA:dT) dsDNA (unknown origin) assessed as change in melting temperature by UV-vis spectrophotometry based DNA melting assay; type: nucleic-acid assay
EKVX [5] = test: Growth inhibition of human EKVX cells incubated for 48 hrs by sulforhodamine B assay; type: functional
CAKI-1 = test: Growth inhibition of human CAKI-1 cells assessed as cell growth at 10 uM incubated for 48 hrs by sulforhodamine B assay relative to control; type: functional; conditions: read-out: Activity
ACHN = test: Growth inhibition of human ACHN cells assessed as cell growth at 10 uM incubated for 48 hrs by sulforhodamine B assay relative to control; type: functional; conditions: read-out: Activity
UO-31 = test: Growth inhibition of human UO-31 cells assessed as cell growth at 10 uM incubated for 48 hrs by sulforhodamine B assay relative to control; type: functional; conditions: read-out: Activity
OVCAR-3 [6] = test: Growth inhibition of human OVCAR-3 cells assessed as cell growth at 100 uM incubated for 48 hrs by sulforhodamine B assay relative to control; type: functional; conditions: read-out: Activity
NCI-H460 [7] = test: Growth inhibition of human NCI-H460 cells assessed as cell growth at 0.01 uM incubated for 48 hrs by sulforhodamine B assay relative to control; type: functional; conditions: read-out: Activity
SF-268 = test: Growth inhibition of human SF-268 cells assessed as cell growth at 1 uM incubated for 48 hrs by sulforhodamine B assay relative to control; type: functional; conditions: read-out: Activity
OVCAR-4 = test: Growth inhibition of human OVCAR-4 cells assessed as cell growth at 10 uM incubated for 48 hrs by sulforhodamine B assay relative to control; type: functional; conditions: read-out: Activity
M14 = test: Growth inhibition of human M14 cells assessed as cell growth at 1 uM incubated for 48 hrs by sulforhodamine B assay relative to control; type: functional; conditions: read-out: Activity
UACC-257 = test: Growth inhibition of human UACC-257 cells assessed as cell growth at 10 uM incubated for 48 hrs by sulforhodamine B assay relative to control; type: functional; conditions: read-out: Activity
OVCAR-8 = test: Growth inhibition of human OVCAR-8 cells assessed as cell growth at 1 uM incubated for 48 hrs by sulforhodamine B assay relative to control; type: functional; conditions: read-out: Activity
A498 = test: Growth inhibition of human A498 cells assessed as cell growth at 10 uM incubated for 48 hrs by sulforhodamine B assay relative to control; type: functional; conditions: read-out: Activity
NCI-H460 [8] = test: Growth inhibition of human NCI-H460 cells assessed as cell growth at 10 uM incubated for 48 hrs by sulforhodamine B assay relative to control; type: functional; conditions: read-out: Activity
CCRF-CEM [9] = test: Growth inhibition of human CCRF-CEM cells assessed as cell growth at 1 uM incubated for 48 hrs by sulforhodamine B assay relative to control; type: functional; conditions: read-out: Activity
OVCAR-5 = test: Growth inhibition of human OVCAR-5 cells assessed as cell growth at 10 uM incubated for 48 hrs by sulforhodamine B assay relative to control; type: functional; conditions: read-out: Activity
UACC-62 = test: Growth inhibition of human UACC-62 cells assessed as cell growth at 10 uM incubated for 48 hrs by sulforhodamine B assay relative to control; type: functional; conditions: read-out: Activity
HCC 2998 = test: Growth inhibition of human HCC 2998 cells assessed as cell growth at 10 uM incubated for 48 hrs by sulforhodamine B assay relative to control; type: functional; conditions: read-out: Activity
EKVX [10] = test: Growth inhibition of human EKVX cells assessed as cell growth at 1 uM incubated for 48 hrs by sulforhodamine B assay relative to control; type: functional; conditions: read-out: Activity
HCT-15 = test: Growth inhibition of human HCT-15 cells assessed as cell growth at 1 uM incubated for 48 hrs by sulforhodamine B assay relative to control; type: functional; conditions: read-out: Activity
MOLT-4 = test: Growth inhibition of human MOLT-4 cells incubated for 48 hrs by sulforhodamine B assay; type: functional
SR = test: Growth inhibition of human SR cells assessed as cell growth at 10 uM incubated for 48 hrs by sulforhodamine B assay relative to control; type: functional; conditions: read-out: Activity
SK-OV-3 = test: Growth inhibition of human SK-OV-3 cells assessed as cell growth at 1 uM incubated for 48 hrs by sulforhodamine B assay relative to control; type: functional; conditions: read-out: Activity
CCRF-CEM [11] = test: Growth inhibition of human CCRF-CEM cells incubated for 48 hrs by sulforhodamine B assay; type: functional
SK-MEL-28 = test: Growth inhibition of human SK-MEL-28 cells assessed as cell growth at 1 uM incubated for 48 hrs by sulforhodamine B assay relative to control; type: functional; conditions: read-out: Activity
HT-29 [12] = test: Growth inhibition of human HT-29 cells assessed as cell growth at 10 uM incubated for 48 hrs by sulforhodamine B assay relative to control; type: functional; conditions: read-out: Activity
[13] = tested on: Poly(dA-dT)oligonucleotide; test: Displacement of ethidium bromide from minor groove of poly(dA:dT) dsDNA (unknown origin) by fluorescence spectrophotometry; type: nucleic-acid assay
SF-295 = test: Growth inhibition of human SF-295 cells assessed as cell growth at 10 uM incubated for 48 hrs by sulforhodamine B assay relative to control; type: functional; conditions: read-out: Activity
PC-3 = test: Growth inhibition of human PC-3 cells assessed as cell growth at 10 uM incubated for 48 hrs by sulforhodamine B assay relative to control; type: functional; conditions: read-out: Activity
SN12C = test: Growth inhibition of human SN12C cells assessed as cell growth at 10 uM incubated for 48 hrs by sulforhodamine B assay relative to control; type: functional; conditions: read-out: Activity
OVCAR-3 [14] = test: Growth inhibition of human OVCAR-3 cells assessed as cell growth at 10 uM incubated for 48 hrs by sulforhodamine B assay relative to control; type: functional; conditions: read-out: Activity
[15] = read-out: LC50 (the source's name)
[16] = read-out: pLC50 (the source's name) (converted)

## CC(=O)Nc1cc(CCl)cc(NC(=O)c2ccc(C(=O)Nc3cccc(NC(=O)CCCN(C)C)c3)cc2)c1
NCI-H322M
  growth at 10 µM: 108%
RXF 393
  growth at 0.01 µM: 96%
MCF7
  growth at 100 µM: 27%
K562 [1]
  growth at 0.1 µM: 99%
HT-29 [2]
  growth at 0.1 µM: 101%
Hs-578T
  growth at 10 µM: 111%
K562 [3]
  growth at 10 µM: 113%
[4]
  ΔTm: 38.7 °C
EKVX [5]; read-out: GI50
  GI50: > 100 µM
EKVX [5]; read-out: LC50
  LC50: > 100 µM
EKVX [5]; read-out: TGI
  TGI: > 100 µM
EKVX [5]; read-out: pGI50 (converted)
  GI50: > 100 µM
EKVX [5]; read-out: pLC50 (converted)
  LC50: > 100 µM
EKVX [5]; read-out: pTGI
  TGI: > 100 µM
CAKI-1
  growth at 10 µM: 104%
ACHN
  growth at 10 µM: 99%
UO-31
  growth at 10 µM: 98%
OVCAR-3 [6]
  growth at 100 µM: 105%
NCI-H460 [7]
  growth at 0.01 µM: 105%
SF-268
  growth at 1 µM: 101%
OVCAR-4
  growth at 10 µM: 99%
M14
  growth at 1 µM: 103%
UACC-257
  growth at 10 µM: 100%
OVCAR-8
  growth at 1 µM: 101%
A498
  growth at 10 µM: 87%
NCI-H460 [8]
  growth at 10 µM: 110%
CCRF-CEM [9]
  growth at 1 µM: 107%
OVCAR-5
  growth at 10 µM: 92%
UACC-62
  growth at 10 µM: 101%
HCC 2998
  growth at 10 µM: 99%
EKVX [10]
  growth at 1 µM: 81%
HCT-15
  growth at 1 µM: 90%
MOLT-4; read-out: GI50
  GI50: > 100 µM
MOLT-4; [15]
  CC50: > 100 µM
MOLT-4; read-out: TGI
  TGI: > 100 µM
MOLT-4; read-out: pGI50 (converted)
  GI50: > 100 µM
MOLT-4; [16]
  CC50: > 100 µM
MOLT-4; read-out: pTGI
  TGI: > 100 µM
SR
  growth at 10 µM: 125%
SK-OV-3
  growth at 1 µM: 106%
CCRF-CEM [11]; read-out: GI50
  GI50: 22.4 µM
CCRF-CEM [11]; [15]
  CC50: 78.2 µM
CCRF-CEM [11]; read-out: TGI
  TGI: 41.8 µM
CCRF-CEM [11]; read-out: pGI50 (converted)
  GI50: 22.4 µM
CCRF-CEM [11]; [16]
  CC50: 77.6 µM
CCRF-CEM [11]; read-out: pTGI (converted)
  TGI: 41.7 µM
SK-MEL-28
  growth at 1 µM: 96%
HT-29 [12]
  growth at 10 µM: 104%
[13]
  C50: 9.9 µM
SF-295
  growth at 10 µM: 66%
PC-3
  growth at 10 µM: 104%
SN12C
  growth at 10 µM: 105%
OVCAR-3 [14]
  growth at 10 µM: 113%

## CC(=O)Nc1cc(CO[Si](C)(C)C(C)(C)C)cc(NC(=O)c2ccc(C(=O)Nc3cccc(NC(=O)CCCN(C)C)c3)cc2)c1
NCI-H322M
  growth at 10 µM: 102%
RXF 393
  growth at 0.01 µM: 101%
MCF7
  growth at 100 µM: 32%
K562 [1]
  growth at 0.1 µM: 96%
HT-29 [2]
  growth at 0.1 µM: 103%
Hs-578T
  growth at 10 µM: 111%
K562 [3]
  growth at 10 µM: 93%
[4]
  ΔTm: 47.2 °C
EKVX [5]; read-out: GI50
  GI50: > 75 µM
EKVX [5]; read-out: LC50
  LC50: > 75 µM
EKVX [5]; read-out: TGI
  TGI: > 75 µM
EKVX [5]; read-out: pGI50 (converted)
  GI50: > 75.9 µM
EKVX [5]; read-out: pLC50 (converted)
  LC50: > 75.9 µM
EKVX [5]; read-out: pTGI
  TGI: > 75.9 µM
CAKI-1
  growth at 10 µM: 86%
ACHN
  growth at 10 µM: 90%
UO-31
  growth at 10 µM: 105%
OVCAR-3 [6]
  growth at 100 µM: 105%
NCI-H460 [7]
  growth at 0.01 µM: 102%
SF-268
  growth at 1 µM: 101%
OVCAR-4
  growth at 10 µM: 85%
M14
  growth at 1 µM: 101%
UACC-257
  growth at 10 µM: 87%
OVCAR-8
  growth at 1 µM: 97%
A498
  growth at 10 µM: 77%
NCI-H460 [8]
  growth at 10 µM: 95%
CCRF-CEM [9]
  growth at 1 µM: 98%
OVCAR-5
  growth at 10 µM: 80%
UACC-62
  growth at 10 µM: 89%
HCC 2998
  growth at 10 µM: 93%
EKVX [10]
  growth at 1 µM: 89%
HCT-15
  growth at 1 µM: 87%
MOLT-4; read-out: GI50
  GI50: > 75 µM
MOLT-4; [15]
  CC50: > 75 µM
MOLT-4; read-out: TGI
  TGI: > 75 µM
MOLT-4; read-out: pGI50 (converted)
  GI50: > 75.9 µM
MOLT-4; [16]
  CC50: > 75.9 µM
MOLT-4; read-out: pTGI
  TGI: > 75.9 µM
SR
  growth at 10 µM: 108%
SK-OV-3
  growth at 1 µM: 107%
CCRF-CEM [11]; read-out: GI50
  GI50: > 75 µM
CCRF-CEM [11]; [15]
  CC50: > 75 µM
CCRF-CEM [11]; read-out: TGI
  TGI: > 75 µM
CCRF-CEM [11]; read-out: pGI50 (converted)
  GI50: > 75.9 µM
CCRF-CEM [11]; [16]
  CC50: > 75.9 µM
CCRF-CEM [11]; read-out: pTGI (converted)
  TGI: > 75.9 µM
SK-MEL-28
  growth at 1 µM: 98%
HT-29 [12]
  growth at 10 µM: 106%
[13]
  C50: 5 µM
SF-295
  growth at 10 µM: 95%
PC-3
  growth at 10 µM: 97%
SN12C
  growth at 10 µM: 99%
OVCAR-3 [14]
  growth at 10 µM: 104%
